Results: patent US11634393B2, “Substituted tolyl fungicides” (FMC CORPORATION, priority 2018, dated 2023)

Columns and labels:
[1] = tested on: Puccinia recondita f. sp. tritici; assay: Test B: wheat leaf rust, spray on wheat seedlings, disease control rating; assay type: in vivo; settings: Rate 10 ppm, 100 = 100% disease control, 0 = no disease control relative to the controls; for pest or weed control at 10 ppm: Puccinia recondita, 192 h
Source text: (§1) General protocol for preparing test suspensions for Tests A-F: the test compounds were first dissolved in acetone in an amount equal to 3% of the final volume and then suspended at the desired concentration (in ppm) in acetone and purified water (50/50 mix by volume) containing 250 ppm of the surfactant PEG400 (polyhydric alcohol esters). The resulting test suspensions were then used in Tests A-F.
The test solution was sprayed to the point of run-off on wheat seedlings. The following day the seedlings were inoculated with a spore suspension of Puccinia recondita f. sp. tritici (the causal agent of wheat leaf rust) and incubated in a saturated atmosphere at 20° C. for 24 h, and then moved to a growth chamber at 20° C. for 7 days, after which time disease ratings were made.
(§2) A rating of 100 indicates 100% disease control and a rating of 0 indicates no disease control (relative to the controls). A dash (-) indicates the compound was not tested.

[2] = tested on: Phakopsora pachyrhizi; assay: Test D: Asian soybean rust, spray on soybean seedlings, disease control rating; assay type: in vivo; settings: Rate 10 ppm, 100 = 100% disease control, 0 = no disease control relative to the controls; for pest or weed control at 10 ppm: Phakopsora pachyrhizi, 216 h
Source text: as §1
The test solution was sprayed to the point of run-off on soybean seedlings. The following day the seedlings were inoculated with a spore suspension of Phakopsora pachyrhizi (the causal agent of Asian soybean rust) and incubated in a saturated atmosphere at 22° C. for 24 h and then moved to a growth chamber at 22° C. for 8 days, after which time visual disease ratings were made.
as §2

| Compound | pest or weed control at 10 ppm [1] | pest or weed control at 10 ppm [2] | Test B disease control rating [1] | Test D disease control rating [2] |
| --- | --- | --- | --- | --- |
| COC(=O)NCc1cc(-c2ccn(-c3c(F)cc(N)cc3F)n2)ccc1C [Compound 5, methyl N-[[5-[1-(4-amino-2,6-difluorophenyl)-1H-pyrazol-3-yl]-2-methylphenyl]methyl]carbamate] | 0% | 0% |  |  |
| COC(=O)NCc1cc(-c2ccn(-c3c(F)cc(Br)cc3F)n2)ccc1C [Compound 7, methyl N-[[5-[1-(4-bromo-2,6-difluorophenyl)-1H-pyrazol-3-yl]-2-methylphenyl]methyl]carbamate] | 100% | 100% |  |  |
| COC(=O)NCc1cc(-c2ccn(-c3c(F)cc(I)cc3F)n2)ccc1C [Compound 8, methyl N-[[5-[1-(2,6-difluoro-4-iodophenyl)-1H-pyrazol-3-yl]-2-methylphenyl]methyl]carbamate] | 100% | 100% |  |  |
| COC(=O)NCc1cc(-c2ccn(-c3c(F)cc(OCC4CC4)cc3F)n2)ccc1C [Compound 9] |  |  | 99% | 99% |
| COC(=O)NCc1cc(-c2ccn(-c3c(F)cc(O)cc3F)n2)ccc1C [Compound 10, methyl N-[[5-[1-(2,6-difluoro-4-hydroxyphenyl)-1H-pyrazol-3-yl]-2-methylphenyl]methyl]carbamate] | 0% | 0% |  |  |
| COC(=O)NCc1cc(-c2ccn(-c3c(F)cc(OCC(C)C)cc3F)n2)ccc1C [Compound 12] |  |  | 98% | 100% |
| COC(=O)NCc1cc(-c2ccn(-c3c(F)cc(OC(C)C)cc3F)n2)ccc1C [Compound 14, methyl N-[[5-[1-[2,6-difluoro-4-(1-methylethoxy)phenyl]-1H-pyrazol-3-yl]-2-methylphenyl]methyl]carbamate] | 100% | 100% |  |  |
| COC(=O)NCc1cc(-c2ccn(-c3c(F)cc(F)cc3F)n2)ccc1C [Compound 16] | 99% | 100% |  |  |
| COC(=O)NCc1cc(-c2ccn(-c3c(F)cc(OC(=O)OC)cc3F)n2)ccc1C [Compound 17] |  |  | 0% | 0% |
| COC(=O)NCc1cc(-c2ccn(-c3c(F)cc(OC(C)=O)cc3F)n2)ccc1C [Compound 18] |  |  | 41% | 65% |
| COC(=O)NCc1cc(-c2ccn(-c3c(F)cc(F)cc3SC)n2)ccc1C [Compound 19] | 0% | 81% |  |  |
| COC(=O)NCc1cc(-c2ccn(-c3c(SC)cc(F)cc3SC)n2)ccc1C [Compound 20] | 0% | 0% |  |  |
| COC(=O)NCc1cc(-c2ccn(-c3c(F)cc(OC4COC4)cc3F)n2)ccc1C [Compound 21] |  |  | 55% | 100% |
| COC(=O)NCc1cc(-c2ccn(-c3c(F)cc(OCC(F)(F)F)cc3F)n2)ccc1C [Compound 22] | 99% | 100% |  |  |
| COC(=O)NCc1cc(-c2ccn(-c3c(F)cc(OCC4CCCO4)cc3F)n2)ccc1C (stereo not shown) [Compound 23] |  |  | 68% | 25% |
| COC(=O)NCc1cc(-c2ccn(-c3c(F)cc(NC(=O)OC)cc3F)n2)ccc1C [Compound 24] |  |  | 0% | 75% |
| COC(=O)NCc1cc(-c2ccn(-c3c(F)cc(NC(C)=O)cc3F)n2)ccc1C [Compound 25] |  |  | 8% | 81% |
| COC(=O)NCc1cc(-c2ccn(-c3c(F)cc(I)cc3SC)n2)ccc1C [Compound 26] | 73% | 87% |  |  |
| COC(=O)NCc1cc(-c2ccn(-c3c(F)cc(SC)cc3F)n2)ccc1C [Compound 27] | 99% | 100% |  |  |
| COC(=O)NCc1cc(-c2ccn(-c3c(F)cc(SC)cc3SC)n2)ccc1C [Compound 28] | 0% | 100% |  |  |
| COC(=O)NCc1cc(-c2ccn(-c3c(F)cc(OC(F)(F)C(F)F)cc3F)n2)ccc1C [Compound 29] |  |  | 100% | 100% |
| COC(=O)NCc1cc(-c2ccn(-c3c(F)cc(OCC4CCC4)cc3F)n2)ccc1C [Compound 31] |  |  | 91% | 0% |
| COC(=O)NCc1cc(-c2ccn(-c3c(F)cc(OCC4COC4)cc3F)n2)ccc1C [Compound 32] |  |  | 0% | 77% |
| COC(=O)NCc1cc(-c2ccn(-c3c(C)cc([N+](=O)[O-])cc3C)n2)ccc1C [Compound 35] | 0% | 0% |  |  |

| Compound | pest or weed control at 10 ppm [1] | pest or weed control at 10 ppm [2] | Test B disease control rating [1] | Test D disease control rating [2] |
| --- | --- | --- | --- | --- |
| CNc1cc(F)c(-n2ccc(-c3ccc(C)c(CNC(=O)OC)c3)n2)c(F)c1 [Compound 36] | 68% | 100% |  |  |
| COC(=O)NCc1cc(-c2ccn(-c3c(F)cc([N+](=O)[O-])cc3Cl)n2)ccc1C [Compound 37] | 26% | 0% |  |  |
| COC(=O)NCc1cc(-c2ccn(-c3c(C)cc(N)cc3C)n2)ccc1C [Compound 38] | 0% | 0% |  |  |
| COC(=O)NCc1cc(-c2ccn(-c3c(F)cc(N)cc3Cl)n2)ccc1C [Compound 39] | 0% | 0% |  |  |
| COC(=O)NCc1cc(-c2ccn(-c3c(C)cc(OC)cc3C)n2)ccc1C [Compound 40] | 0% | 99% |  |  |
| COC(=O)NCc1cc(-c2ccn(-c3c(F)cc(C4CC4)cc3F)n2)ccc1C [Compound 41, methyl N-[[5-[1-(4-cyclopropyl-2,6-difluorophenyl)-1H-pyrazol-3-yl]-2-methylphenyl]methyl]carbamate] | 100% | 100% |  |  |
| COC(=O)NCc1cc(-c2ccn(-c3c(F)cc(SC(C)(C)C)cc3F)n2)ccc1C [Compound 42, methyl N-[[5-[1-[4-[(1,1-dimethylethyl)thio]-2,6-difluorophenyl]-1H-pyrazol-3-yl]-2-methylphenyl]methyl]carbamate] | 100% | 73% |  |  |
| COC(=O)NCc1cc(-c2ccn(-c3c(F)cc(SC(F)F)cc3F)n2)ccc1C [Compound 43, methyl N-[[5-[1-[4-[(difluoromethyl)thio]-2,6-difluorophenyl]-1H-pyrazol-3-yl]-2-methylphenyl]methyl]carbamate] | 100% | 100% |  |  |
| COC(=O)NCc1cc(-c2ccn(-c3c(Cl)cccc3Cl)n2)ccc1C [Compound 44] | 68% | 100% |  |  |
| COC(=O)NCc1cc(-c2ccn(-c3c(F)cccc3I)n2)ccc1C [Compound 45] | 0% | 100% |  |  |
| COC(=O)NCc1cc(-c2ccn(-c3c(F)cccc3Br)n2)ccc1C [Compound 46] | 68% | 100% |  |  |
| COC(=O)NCc1cc(-c2ccn(-c3c(F)cccc3Cl)n2)ccc1C [Compound 47] | 74% | 100% |  |  |
| COC(=O)NCc1cc(-c2ccn(-c3c(C)cc(Br)cc3C)n2)ccc1C [Compound 48] | 68% | 99% |  |  |
| COC(=O)NCc1cc(-c2ccn(-c3c(C)cc(Cl)cc3C)n2)ccc1C [Compound 49] | 68% | 99% |  |  |
| COC(=O)NCc1cc(-c2ccn(-c3c(F)cc(Br)cc3Cl)n2)ccc1C [Compound 50] | 100% | 100% |  |  |
| COC(=O)NCc1cc(-c2ccn(-c3c(F)cc(Cl)cc3Cl)n2)ccc1C [Compound 51] | 100% | 100% |  |  |
| COC(=O)NCc1cc(-c2ccn(-c3c(Br)cccc3I)n2)ccc1C [Compound 52] | 0% | 99% |  |  |
| C#Cc1cc(F)c(-n2ccc(-c3ccc(C)c(CNC(=O)OC)c3)n2)c(F)c1 [Compound 53, methyl N-[[5-[1-(4-ethynyl-2,6-difluorophenyl)-1H-pyrazol-3-yl]-2-methylphenyl]methyl]carbamate] | 100% | 100% |  |  |
| COC(=O)NCc1cc(-c2ccn(-c3c(Cl)cc([N+](=O)[O-])cc3Cl)n2)ccc1C [Compound 54] | 0% | 0% |  |  |
| COC(=O)NCc1cc(-c2ccn(-c3c(Cl)cc(N)cc3Cl)n2)ccc1C [Compound 55] | 0% | 0% |  |  |
| COC(=O)NCc1cc(-c2ccn(-c3c(Cl)cc(Br)cc3Cl)n2)ccc1C [Compound 56] | 80% | 100% |  |  |
| COC(=O)NCc1cc(-c2ccn(-c3c(Cl)cc(Cl)cc3Cl)n2)ccc1C [Compound 57] | 74% | 100% |  |  |
| COC(=O)NCc1cc(-c2ccn(-c3c(Br)cccc3Br)n2)ccc1C [Compound 58] | 68% | 100% |  |  |
